Measured values: US20110224311A1, “Natural Product Sweetness Enhancers” (priority 2009, published 2011)
Values joined by “and” are separate entries in the source; they are usually repeats but may differ in a detail not shown here. Equal values may be shown once. “Also recorded” adds a separate entry of the source. Read-outs that look alike come from different tables or passages of the source.

Legend:
[1] = tested on: trained judges (expert taste panel); test: Double-blind sequential monadic sweetness intensity test, sip and spit (Example 1 protocol); type: in vivo, human
Text: Subjects were given three samples to evaluate. Each subject was directed to swirl the first sample in his or her mouth for 3-5 seconds, expectorate the entire sample into a discard cup, and then assess the sweetness intensity of the sample. The intensity was rated on a score card by marking a numerical value along a scale from 0 to 8 (e.g., 0=none, 2=slight, 4=definite, 8=very strong). Following the decision regarding the sweetness intensity, subjects were instructed to rinse their mouth with water and spit in the discard cup. Subjects then were given unsalted crackers to cleanse the palate. A period of 10 minutes elapsed between presentations of each sample to reduce the potential influence of residual taste effects. A second sample was then presented and evaluated as above and the same procedure was followed until all three products were evaluated. Sample presentation was randomized to avoid order of presentation bias. To participate in the sensory panel, judges or subjects were chosen from an expert taste panel. These subjects were screened for taste acuity and were trained in evaluating solutions using the sip and spit protocol and were trained in using a rating ballot. The number of judges who participated in the study was 20. The female subjects were all non-pregnant and all volunteers were of <55 years of age with no history of allergy to sucrose. Judges were asked to execute an informed consent form. Specifically, the following instructions were given to the judges: Please take a sip of water. Carefully take the cap off the sample cup placed in front of you. Sip, swirl for 3-5 seconds, and then spit the sample into the cup provided, then assess the intensity of the sweetness of the sample. Please evaluate the sample for the intensity of the sweet flavor and put a vertical mark on the number that best describes the intensity. Rinse your mouth with the water provided and spit into the discard cup. Use crackers provided to cleanse your palate before evaluating the next sample. If any other flavor was present in the sample please describe it. Please rinse your mouth again several times and have some more water and unsalted crackers. You will now have a rest period of 10 minutes before you will be given the next sample.

[2] = cited from earlier work
[3] = cited from earlier work; remark: listed apart in the source
[4] = tested on: trained judges (expert taste panel); test: Double-blind sequential monadic sweetness intensity test, taste and swallow (Example 6 protocol), beverages and solutions; type: in vivo, human; details: for intrinsic sweetness in unsweetened beverage: Reb C at 190 ppm or below (95, 190, 285 ppm tested)
[5] = tested on: test group having five (5) subjects; test: Forced-choice taste test of Reb C water solution against water; type: in vivo, human; details: 250 μM Reb C water solution
Method: The taste of a 250 μM Reb C solution was evaluated by a test group having five (5) subjects as follows (Forced-choice): Subjects were presented with 2 cups, each containing 10 ml of either 250 μM Reb C water solution or water (room temperature). […] Subjects were asked to sip most or all of the 10 ml from the first cup, swish the liquid in their oral cavity, and expectorate into a cup, then rinse their mouths vigorously with water. Soon thereafter, the contents of the second cup were sampled in the same manner. Then, subjects were asked to choose the sweeter of the two samples, or if not sweet, to describe the qualitative taste profile of the sample having a detectable taste.

[6] = tested on: test group having four (4) subjects; test: Open qualitative taste report of Reb C water solutions; type: in vivo, human; details: 250 and 300 μM Reb C in water, subjects 1 to 4
Method: The taste of 250 μM and 300 μM Reb C solutions were evaluated as follows by another test group having four (4) subjects as follows: 10 ml solutions of 250 and 300 μM Reb C in water were sampled by four subjects who were asked to report their qualitative taste experience of the solutions. […] The subjects have the following qualitative taste descriptions: […]

10 panelists = test: Quantitative taste profile by trained panelists (Example 11); type: in vivo, human
Method: The taste of 150, 300, and 600 μM Reb C was evaluated by a test group. 10 panelists were trained over a period of a few weeks to provide a quantitative flavor profile of Reb C. Panelists first were trained using standard tastants representing the different taste modalities given in FIG. 10 (i.e., sweet, bitter, salt, sour, and licorice). They then were trained to use the scales when flavors were mixed together. All intensity ratings are on scales ranging from 0 (no taste) to 8 (highest intensity). The intensity rating for sweet is essentially the same as used in Examples 1 and 6. The taste profiles were obtained for 150, 300, and 600 μM Reb C. Reb A (0.2 mg/ml, a concentration used in some food/beverage applications for sweetening) was also evaluated in the test for comparison. The scale is not linear at the bottom. A rating of 1 is around the threshold for sweetness detection.

[7] = 5% (w/v-%) fructose solution + 300 μM enhancer, versus 7% (w/v-%) fructose
[8] = 5% (w/v-%) sucrose solution + 300 μM enhancer, versus 7% (w/v-%) sucrose, scale 0 to 8
[9] = 8% (w/v-%) sucrose solution + 300 μM enhancer, versus 11% (w/v-%) sucrose

Q: Which “sweetness of sweetener solution with enhancer compared with higher sweetener concentration” value [1, 7] does the source give for `C=C1C[C@@]23CC[C@H]4[C@@](C)(CCC[C@@]4(C)C(=O)O[C@@H]4O[C@H](CO)[C@@H](O)[C@H](O)[C@H]4O)[C@@H]2CC[C@]1(O[C@@H]1O[C@H](CO)[C@@H](O)[C@H](O)[C@H]1O[C@@H]1O[C@@H](C)[C@H](O)[C@@H](O)[C@H]1O)C3` [Dulc A, dulcoside A] here?
A: achieved that of a 7% (w/v-%) fructose solution; also recorded: acts synergistically

Q: What about the “sweetness of sweetener solution with enhancer compared with higher sweetener concentration” value [1, 8] of the same molecule?
A: achieved that of a 7% (w/v-%) sucrose solution; also recorded: acts synergistically

Q: What about the “sweetness of sweetener solution with enhancer compared with higher sweetener concentration” value [1, 9] of the same molecule?
A: approached that of an 11% (w/v-%) sucrose solution; also recorded: acts synergistically

Q: What about the off-tastes ([1]; 8% (w/v-%) sucrose solution with 300 μM Dulc A) of the same molecule?
A: No off-tastes were detected

Q: And the “mean sweetness intensity score” value ([1]; 8% (w/v-%) sucrose solution with 300 μM Dulc A, scale 0 to 8)?
A: 6.3

Q: And the “sweetness relative to sucrose” value ([2]; known values, background)?
A: 30 times sweeter than sucrose

Q: With `C=C1C[C@@]23CC[C@H]4[C@@](C)(CCC[C@@]4(C)C(=O)O[C@@H]4O[C@H](CO)[C@@H](O)[C@H](O)[C@H]4O)[C@@H]2CC[C@]1(O[C@@H]1O[C@H](CO)[C@@H](O)[C@H](O[C@@H]2O[C@H](CO)[C@@H](O)[C@H](O)[C@H]2O)[C@H]1O[C@@H]1O[C@H](CO)[C@@H](O)[C@H](O)[C@H]1O)C3` [rebaudioside A] as the molecule, how does the “aftertaste among the diterpene glycosides of Stevia extracts” value ([2]; bitter and licorice-like aftertaste) read?
A: least aftertaste

Q: What about the “effect in mixtures with other sweeteners” value ([3]; mixture with sucrose, sweetness intensity equivalent to 7% (w/v-%) sucrose) of the same molecule?
A: additive effect

Q: And the “effect in mixtures with other sweeteners” value ([3]; mixtures with fructose and glucose, sweetness intensity equivalent to 3% (w/v-%) sucrose)?
A: additive effect

Q: What about the “effect in mixtures with other sweeteners” value ([3]; mixtures with fructose, glucose and sucrose, sweetness intensity equivalent to 5% (w/v-%) sucrose) of the same molecule?
A: additive effect

Q: And the “effect in mixtures with other sweeteners” value ([3]; mixtures with glucose and fructose, sweetness intensity equivalent to 7% (w/v-%) sucrose)?
A: suppressive effect

Q: What about the “effect in mixtures with other sweeteners” value ([3]; mixtures with sucrose, sweetness intensity equivalent to 3% (w/v-%) sucrose) of the same molecule?
A: synergistic effect

Q: Which “sweetness of sweetener solution with enhancer compared with higher sweetener concentration” value [1, 7] does the source give for `C=C1CC23CCC4C(C)(C(=O)OC5OC(CO)C(O)C(O)C5O)CCCC4(C)C2CCC1(OC1OC(CO)C(O)C(OC2OC(CO)C(O)C(O)C2O)C1OC1OC(C)C(O)C(O)C1O)C3` (stereo not drawn) [Reb C, rebaudioside C] here?
A: close to that of a 7% (w/v-%) fructose solution; also recorded: acts synergistically

Q: What about the “sweetness of sweetener solution with enhancer compared with higher sweetener concentration” value [1, 8] of the same molecule?
A: indistinguishable from that of a 7% (w/v-%) sucrose solution; also recorded: acts synergistically

Q: And the “sweetness of sweetener solution with enhancer compared with higher sweetener concentration” value ([1]; 8% (w/v-%) sucrose solution + 150 μM Reb C, versus 8% and 11% (w/v-%) sucrose)?
A: between that of the 8% (w/v-%) sucrose solution and that of an 11% (w/v-%) sucrose solution; also recorded: significantly enhanced

Q: And the “sweetness of sweetener solution with enhancer compared with higher sweetener concentration” value [1, 9]?
A: close to that of an 11% (w/v-%) sucrose solution; also recorded: significantly enhanced

Q: What about the “mean sweetness intensity score” value ([1]; 8% (w/v-%) sucrose solution with 150 μM Reb C, scale 0 to 8) of the same molecule?
A: 6.10

Q: And the “sweetness of sweetener solution with enhancer compared with higher sweetener concentration” value ([4]; 7.14% w/v erythritol water solution + 285 ppm (300 μM) Reb C, versus 7.14% and 10% erythritol)?
A: significantly sweeter than the 7.14% erythritol solution alone, but did not achieve the sweetness of a 10% erythritol solution; also recorded: acts synergistically

Q: And the “statistical significance of the sweetness enhancing effect” value ([4]; 8% (w/v-%) fructose solution + 300 μM Reb C)?
A: not statistically significant

Q: And the “sweetness of sweetener solution with enhancer compared with higher sweetener concentration” value ([4]; 8% (w/v-%) fructose solution + 300 μM Reb C, versus 8% and 11% fructose)?
A: between that of the 8% (w/v-%) fructose solution and that of an 11% (w/v-%) fructose solution

Q: What about the “sweetness of beverage with enhancer compared with higher sweetener concentration” value ([4]; cola beverage buffered with citric acid, 10.39% (w/v-%) HFCS55 + 190 ppm Reb C, versus 14.29% HFCS55) of the same molecule?
A: significantly increases the sweetness intensity to that of 14.29% HFCS55; also recorded: synergistically enhanced

Q: And the “sweetness of beverage with enhancer compared with beverage alone” value ([4]; cola beverage buffered with phosphoric acid, 10.39% (w/v-%) HFCS55 + 190 ppm Reb C)?
A: is not higher than that of 10.39% (w/v-%) HFCS55 cola beverage alone

Q: And the “sweetness of beverage with enhancer compared with higher sweetener concentration” value ([4]; cola beverage buffered with phosphoric acid, 10.39% (w/v-%) HFCS55 + 310 ppm Reb C, versus 14.29% HFCS55)?
A: increased significantly the sweetness intensity of a cola beverage containing 10.39% (w/v-%) HFCS55, but did not reach the sweetness of a 14.29% (w/v-%) HFCS55 cola beverage; also recorded: enhances the sweetness intensity

Q: And the “sweetness of beverage with enhancer compared with higher sweetener concentration” value ([4]; iced tea, 8% (w/v-%) sucrose + 300 μM Reb C, versus 8% and 11% sucrose)?
A: between that of the 8% (w/v-%) solution and that of an 11% (w/v-%) sucrose solution; also recorded: enhances the sweetness intensity

Q: What about the “sweetness of beverage with enhancer compared with higher sweetener concentration” value ([4]; iced tea, 10.39% (w/v-%) HFCS55 + 300 μM Reb C, versus 14.29% HFCS55) of the same molecule?
A: indistinguishable from that of a 14.29% (w/v-%) HFCS55 (HFCS) solution; also recorded: acts synergistically

Q: What about the “sweetness of beverage with enhancer compared with higher sweetener concentration” value ([4]; lemon-lime soda (citric acid), 10.39% (w/v-%) HFCS55 + 190 ppm Reb C, versus 14.29% HFCS55) of the same molecule?
A: did not reach the sweetness of a 14.29% (w/v-%) HFCS55 solution; also recorded: synergistically enhanced

Q: And the “intrinsic sweetness in unsweetened beverage” value ([4]; unsweetened cola beverage)?
A: does not increase the sweetness of an unsweetened cola beverage

Q: And the “intrinsic sweetness in unsweetened beverage” value ([4]; unsweetened lemon-lime soda (FIG. 16))?
A: does not increase the sweetness of an unsweetened cola beverage

Q: What about the “identification of the sample against water (forced-choice)” value ([5]; 10 ml, room temperature, five subjects) of the same molecule?
A: All subjects correctly identified the sample containing Reb C

Q: And the “qualitative taste description (one per subject)” value ([5]; subjects 1 to 5)?
A: Metallic, not sweet; also recorded: Aversive (“Nasty”); also recorded: Slight sweet, astringent; also recorded: Faintly sweet; also recorded: Slight sweet/licorice

Q: What about the “qualitative taste description (one per subject)” value [6] of the same molecule?
A: bitter and/or licorice

Q: What about the “unpleasant tastes, bitter and licorice” value (10 panelists; 150, 300 and 600 μM Reb C alone) of the same molecule?
A: barely detected

Q: What about the intrinsic sweetness (10 panelists; 150, 300 and 600 μM Reb C, scale 0 to 8) of the same molecule?
A: little or no intrinsic sweetness

Q: What about the “unpleasant tastes, bitter and licorice” value (10 panelists; Reb C combined with sugar) of the same molecule?
A: undetected

Q: For `OC[C@H]1O[C@@](CO)(O[C@H]2O[C@H](CO)[C@@H](O)[C@H](O)[C@H]2O)[C@@H](O)[C@@H]1O` [sucrose, α-D-glucopyranosyl-(1→2)-β-D-fructofuranose, reference compound], which “mean sweetness intensity score” value ([1]; 8% (w/v-%) sucrose solution alone (low-concentration comparator), scale 0 to 8) is on record?
A: 5.30 and 5.0

Q: What about the “mean sweetness intensity score” value ([1]; 11% (w/v-%) sucrose solution alone (high-concentration comparator), scale 0 to 8) of the same molecule?
A: 6.95 and 6.7
